Laboratory results from patent US20260085076A1, “CRYSTAL FORM OF AROMATIC HETEROCYCLIC COMPOUND, COMPOSITION THEREOF, PRODUCTION METHOD THEREOF AND USES THEREOF” (Hangzhou Yuhong Pharmaceutical Technology Co., Ltd., priority 2023, published 2026).
Converted amounts (≈) assume the structure as drawn. “Also recorded” adds a separate entry of the source.

Columns and labels:
[1] = Hot stage XRPD, crystal transformation on heating; assay type: physicochemical
[2] = DVS and isotherm curves, moisture absorption; assay type: physicochemical
[3] = tested on: p-STAT5 under IL-15 stimulation in PBMC (JAK-STAT pathway); test: p-STAT5 ELISA in IL-15 stimulated hPBMC cells; assay type: cell-based, human; details: 45 min compound, 30 min IL-15, ELISA
Protocol: Based on the mechanism of JAK-STAT pathway, the effect of the compounds on the JAK-STAT pathway were evaluated by using cytokine IL-15 to stimulate hPBMC cells, and using the downstream STAT5 phosphorylation level as the detection index.
1. PBMC cell counting plate: 90 μL PBMC was seeded in a 96-well plate (PBMC cell density 80,000/well).
2. Treatment with test compounds: After cells being seeded, drug treatment was carried out immediately. The drugs to be tested at 5 μL/well (final concentrations 1, 0.5, 0.1, 0.05, 0.01, and 0.005 μM) were incubated at 37° C. for 45 min.
3. Cytokine IL-15 stimulation: The cells were stimulated by 5 μL IL-15, and incubated at 37° C. for 30 min.
4. Protein sample collection: The cells were collected in a centrifuge tube and centrifuged for 5 minutes. The supernatant was discarded and cells were lysed with 1× Cell Extraction Buffer PTR.
5. p-STAT5 detection: Perform detection according to the requirements of the ELISA kit.
Experimental results: IC50 values of compounds on p-STAT5 under IL-15 stimulation in PBMC

[4] = tested on: collagen-induced arthritis model in mice; test: Collagen-induced arthritis model in mice (mCIA); assay type: in vivo, DBA/1J mice; details: 50 mg/kg once a day, FIG. 77
Protocol: 1. Construction of collagen-induced arthritis model in mice (mCIA) Experimental purpose: To test the immunosuppressive activity of YZ001052 in the mCIA model. PF-06651600 was used as a positive control compound.
Complete and incomplete Freund's adjuvants with chicken type II collagen solution were mixed in equal proportions to form emulsions. Except for the blank control group, a mixture of complete Freund's adjuvant and chicken type II collagen solution was injected subcutaneously into the base of the tail and thigh of mice on Day 0. Each mouse was injected subcutaneously with 100 μL at the base of the tail, and injected 50 μL subcutaneously at the base of both thighs (primary immunization). On day 21, mice were injected subcutaneously with 200 μL of a mixture of incomplete Freund's adjuvant and chicken type II collagen as a booster injection (second immunization). Arthritis was considered to occur if the clinical score of at least one limb was >2 points. Paw thickness measurement: Using a vernier caliper to measure the thickness of the left and right hind feet of the mouse and record it, which is the degree of paw swelling. The detection frequency was once every 3 days.

SRBC mouse model = test: SRBC-induced delayed-type hypersensitivity (DTH) in mice; assay type: in vivo, Balb/c mice; details: 100 mg/kg gavage once a day, day 0 to day 6, FIG. 76
Protocol: Drug formulation: The compound was added to 0.5% CMC-Na solution to formulate a drug suspension (dosage is 10 mg/mL).
Induction and administration of delayed-type hypersensitivity (DTH): 30 male Balb/c mice were weighed and randomly divided into 6 groups according to body weight, with 5 mice in each group. The experimental period lasted for 7 days. On day 0, mice were sensitized by subcutaneous injection of sheep red blood cells (SRBC). The mice were performed gavage administration at 100 mg/kg (once a day) from day 0 to day 6. On day 6, the mice were injected SRBC into the right hind foot pad for challenge. Measurements were taken on the 7th day of the experiment, and the experiment was concluded.
Pharmacodynamic detection indicators of disease models: the detection and observation indicators are the redness and swelling degree and thickness of the paw pads of SRBC-induced mice. The thickness of the right paw was measured on day 6 before the SRBC injection challenge as the baseline. The thickness of the right paw was measured again at the end of the experiment, the difference in paw thickness before and after the second injection was calculated.
Statistical analysis: The experimental data were expressed as mean±standard deviation (Mean±SD). All data were statistically analyzed using T-test, with P<0.05 considered statistically significant.

[5] = Influencing factors test of crystal form (high temperature, high humidity); assay type: physicochemical
Protocol: (§1) Samples of crystal form I produced in Example 15 were taken, which were 15 samples of 50 mg each, and sealed with aluminum foil bags. The crystal stability of the above samples were studied under high temperature (60±2° C.), high humidity (RH90%±5%), long-term test (25° C.±2° C., RH 60%±5%) and accelerated test (40° C.±2° C., RH 75%±5%) conditions. […] The long-term and accelerated 3-month crystal form is stable.

[6] = Crystal competition experiment in water; assay type: physicochemical; details: mixture of forms I-IX suspended in water, room temperature, 4 and 7 days, XRD
[7] = Stability test of crystal form (long-term, accelerated); assay type: physicochemical
Protocol: as §1

[8] = Solubility at different pH values; assay type: physicochemical; details: thermodynamic from solid
Protocol: Excess samples of crystal form I were respectively added to 10 mL of solutions with different pH value. After being shaken for 24 hours by a constant temperature shaker at 32° C. at 100 rpm, the saturated solutions (with undissolved solids at the bottom) were centrifuged and filtered, then determined linear solutions (formulated with reference substances) with different concentrations and saturated solutions with different pH values under the content item. The solubility of the samples at different pH values were calculated using the standard curve as follows, see FIG. 75 for details.

[9] = Crystal competition experiment in anhydrous ethanol; assay type: physicochemical; details: mixture of forms I-IX suspended in anhydrous ethanol, room temperature, 4 days, XRD
Protocol: 2 mg each of the aromatic heterocyclic compound of crystal form I, crystal form II, crystal form III, crystal form IV, crystal form V, crystal form VI, crystal form VII, crystal form VIII and crystal form IX was added to 3 ml of anhydrous ethanol to form a suspension.

With `C=CC(=O)N1CCc2c(c(-c3ccnc4[nH]ccc34)nn2C)C1` [crystal form IX, 1-(1-methyl-3-(1H-pyrrolo[2,3-b]pyridin-4-yl)-1,4,6,7-tetrahydro-5H-pyrazolo[4,3-c]pyridin-5-yl)prop-2-en-1-one] the “crystal transformation in hot stage XRPD” value [1] was “transformed into crystal form I at 155 °C”.

For `C=CC(=O)N1CCc2c(c(-c3ccnc4[nH]ccc34)nn2C)C1` [crystal form VIII, 1-(1-methyl-3-(1H-pyrrolo[2,3-b]pyridin-4-yl)-1,4,6,7-tetrahydro-5H-pyrazolo[4,3-c]pyridin-5-yl)prop-2-en-1-one], the “crystal transformation in hot stage XRPD” value [1] was “most of the crystals were transformed into crystal form I at 150 °C” and the moisture absorption rate [2] was “about 1.3%”.

With `C=CC(=O)N1C[C@H](Nc2ncnc3[nH]ccc23)CC[C@@H]1C` [PF-06651600, reference compound] the IC50 [3] was 85 nM, the paw swelling ([4]; CIA mice) was “improved to varying degrees” and the arthritis score ([4]; compared with the model group) was “significantly decreased”.

In the case of `C=CC(=O)N1CCc2[nH]nc(-c3ccnc4[nH]ccc34)c2C1` [YZ001065], the “immunosuppressive effect on SRBC-induced delayed-type hypersensitivity (right paw thickness)” value (“immunosuppressive effect” below) (SRBC mouse model) is reported as “significant immunosuppressive effects”.

For `C=CC(=O)N1CCc2c(c(-c3ccnc4[nH]ccc34)nn2C)C1` [crystal form VI, 1-(1-methyl-3-(1H-pyrrolo[2,3-b]pyridin-4-yl)-1,4,6,7-tetrahydro-5H-pyrazolo[4,3-c]pyridin-5-yl)prop-2-en-1-one], the “crystal transformation in hot stage XRPD” value [1] was “transformed into crystal form I at 150 °C”.

In the case of `C=CC(=O)N1CCc2c(c(-c3ccnc4[nH]ccc34)nn2C)C1` [crystal form II, 1-(1-methyl-3-(1H-pyrrolo[2,3-b]pyridin-4-yl)-1,4,6,7-tetrahydro-5H-pyrazolo[4,3-c]pyridin-5-yl)prop-2-en-1-one], the “crystal transformation in hot stage XRPD” value [1] is reported as “transformed into crystal form I at 150 °C” and the moisture absorption rate [2] is reported as “about 2.4%”.

With `C=CC(=O)N1CCc2c(c(-c3ccnc4[nH]ccc34)nn2C)C1` [crystal form I, 1-(1-methyl-3-(1H-pyrrolo[2,3-b]pyridin-4-yl)-1,4,6,7-tetrahydro-5H-pyrazolo[4,3-c]pyridin-5-yl)prop-2-en-1-one] the “Crystal form test result” value ([5]; 0 days) was “form I”, the “Crystal form test result” value ([5]; high humidity RH90% ± 5%, 5 days) was “form I” and the “Crystal form test result” value ([5]; high humidity RH90% ± 5%, 15 days) was “stable; also recorded: form I”. The “Crystal form test result” value ([5]; high temperature 60 ± 2° C., 5 days) was “form I”, the “Crystal form test result” value ([5]; high temperature 60 ± 2° C., 15 days) was “stable; also recorded: form I” and the “crystal stability in water” value [6] was “good crystal stability in water”. For the same molecule, the moisture absorption rate [2] was “about 2.4%”, the “Crystal form test result” value ([7]; 0 days) was “form I” and the “Crystal form test result” value ([7]; accelerated 40° C. ± 2° C., RH 75% ± 5%, 1 month) was “form I”. For the same molecule, the “Crystal form test result” value ([7]; accelerated 40° C. ± 2° C., RH 75% ± 5%, 3 month) was “stable; also recorded: form I”, the “Crystal form test result” value ([7]; long-term 25° C. ± 2° C., RH 60% ± 5%, 1 month) was “form I” and the “Crystal form test result” value ([7]; long-term 25° C. ± 2° C., RH 60% ± 5%, 3 month) was “stable; also recorded: form I”. For the same molecule, the solubility at 24 h ([8]; aqueous solution of pH 1.0, simulated gastric fluid, pH 1.0, 32° C.) was 14500 µg/mL (≈ 47300 µM), the solubility at 24 h ([8]; aqueous solution of pH 2.0, simulated gastric fluid, pH 2.0, 32° C.) was 2740 µg/mL (≈ 8900 µM) and the solubility at 24 h ([8]; aqueous solution of pH 3.8, aqueous buffer, pH 3.8, 32° C.) was 118 µg/mL (≈ 385 µM). It also gave a solubility at 24 h ([8]; aqueous solution of pH 4.5, aqueous buffer, pH 4.5, 32° C.) of 68.6 µg/mL (≈ 223 µM), a solubility at 24 h ([8]; aqueous solution of pH 6.8, aqueous buffer, pH 6.8, 32° C.) of 58.9 µg/mL (≈ 192 µM) and a solubility at 24 h ([8]; aqueous solution of pH 8.0, aqueous buffer, pH 8.0, 32° C.) of 60.8 µg/mL (≈ 198 µM). The solubility at 24 h ([8]; water, 32° C.) was 53.2 µg/mL (≈ 173 µM) and the “crystal stability in ethanol” value [9] was “good crystal stability in the presence of ethanol”.

With `C=CC(=O)N1CCc2c(c(-c3ccnc4[nH]ccc34)nn2C)C1` [crystal form VII, 1-(1-methyl-3-(1H-pyrrolo[2,3-b]pyridin-4-yl)-1,4,6,7-tetrahydro-5H-pyrazolo[4,3-c]pyridin-5-yl)prop-2-en-1-one] the “crystal transformation in hot stage XRPD” value [1] was “transformed to crystal form I at 150 °C” and the moisture absorption rate [2] was “about 1.3%”.

With `C=C(F)C(=O)N1CCc2c(c(-c3ccnc4[nH]ccc34)nn2C)C1` [YZ001054] the “immunosuppressive effect” value (SRBC mouse model) was “significant immunosuppressive effects”.

With `C=CC(=O)N1Cc2c(-c3ccnc4[nH]ccc34)nn(C(C)C)c2C[C@H]1C` [YZ001085] the “immunosuppressive effect” value (SRBC mouse model) was “significant immunosuppressive effects”.

With `C=CC(=O)N1CCc2c(c(-c3ccnc4[nH]ccc34)nn2C)C1` [crystal form III, 1-(1-methyl-3-(1H-pyrrolo[2,3-b]pyridin-4-yl)-1,4,6,7-tetrahydro-5H-pyrazolo[4,3-c]pyridin-5-yl)prop-2-en-1-one] the “crystal stability in water” value [6] was “good crystal stability in water”, the “crystal transformation in hot stage XRPD” value [1] was “no crystal transformation at 140 °C” and the moisture absorption rate [2] was “about 2.2%”.
